Experiments:
[1] = tested on: HepG2 human liver cancer cells; test: Cell viability assay (trypan blue dye exclusion), viable cells counted at day 6; type: cell-based; conditions: 10 micromoles; for Treated (cell number × 10^5): about 4×10^4 cells seeded, untreated 4.2 ± 0.4; for % inhibiton: growth vs untreated
Method: (§1) The following cancer cells were maintained in Dulbecco's modified Eagle medium (DMEM) supplemented with 10 percent bovine calf serum. Cells were seeded for 24 hours. Then they were treated with PKC inhibitors or left untreated. The cells were then collected periodically and evaluated using trypan blue dye exclusion to assess viability using the method described by C Y Chen, et al., in J. Biol. Chem. 273:16700-16709. Cultures containing about 4×10^4 cells were treated with 5 micromoles of Gö7874 (except that PC3 prostate cancer cells were treated with 10 micromoles) and the viable cells were counted at day 6. […] Cultures containing about 4×10^4 cells were treated with or without 10 micromoles of Gö6850 and the viable cells were counted at day 6. […] Cultures containing about 4×10^4 cells were treated with or without 10 micromoles of NGIC-I and the viable cells were counted at day 6. […] Cultures containing about 4×10^4 cells were treated with or without 10 micromoles of Ro31-7549 and the viable cells were counted at day 6. […] Cultures containing about 4×10^4 cells were treated with or without 10 micromoles of Ro31-8220 and the viable cells were counted at day 6. […] Cultures containing about 4×10^4 cells were treated with or without 10 micromoles of Ro31-8425 and the viable cells were counted at day 6. […] Cultures containing about 4×10^4 cells were treated with or without 10 micromoles of Ro31-0432 and the viable cells were counted at day 6.

[2] = tested on: NBT-II human bladder cancer cells; test: as above; type: cell-based; conditions: 10 micromoles; for Treated (cell number × 10^5): about 4×10^4 cells seeded, untreated 2.9 ± 0.4; for % inhibiton: growth vs untreated
Method: as §1

[3] = tested on: PANC-1 human pancreatic carcinoma cells; test: as above; type: cell-based; conditions: 10 micromoles; for Treated (cell number × 10^5): about 4×10^4 cells seeded, untreated 2.1 ± 0.3; for % inhibiton: growth vs untreated
Method: as §1

[4] = tested on: HT29 human colon cancer cells; test: as above; type: cell-based; conditions: 10 micromoles; for Treated (cell number × 10^5): about 4×10^4 cells seeded, untreated 3.8 ± 0.4; for % inhibiton: growth vs untreated
Method: as §1

[5] = tested on: AGS human gastric cancer cells; test: as above; type: cell-based; conditions: 10 micromoles; for Treated (cell number × 10^5): about 4×10^4 cells seeded, untreated 2.4 ± 0.3; for % inhibiton: growth vs untreated
Method: as §1

[6] = tested on: MDA-MB-468 human breast cancer cells; test: as above; type: cell-based; conditions: 10 micromoles; for Treated (cell number × 10^5): about 4×10^4 cells seeded, untreated 6.1 ± 0.4; for % inhibiton: growth vs untreated
Method: as §1

[7] = tested on: Jurkat cells (a human acute T-cell leukemia cell line); test: as above; type: cell-based; conditions: 10 micromoles; for Treated (cell number × 10^5): about 4×10^4 cells seeded, untreated 8.8 ± 0.4; for % inhibiton: growth vs untreated
Method: as §1

[8] = tested on: Hela human cervical cancer cells; test: as above; type: cell-based; conditions: 10 micromoles; for Treated (cell number × 10^5): about 4×10^4 cells seeded, untreated 3.4 ± 0.4; for % inhibiton: growth vs untreated
Method: as §1

[9] = tested on: PC3 human prostate cancer cells; test: as above; type: cell-based; conditions: 10 micromoles; for Treated (cell number × 10^5): about 4×10^4 cells seeded, untreated 7.1 ± 0.3; for % inhibiton: growth vs untreated
Method: as §1

[10] = tested on: H460 human lung cancer cells; test: as above; type: cell-based; conditions: 10 micromoles; for Treated (cell number × 10^5): about 4×10^4 cells seeded, untreated 2.4 ± 0.2; for % inhibiton: growth vs untreated
Method: as §1

U251 human glioma cells = test: as above; type: cell-based; conditions: 10 micromoles; for Treated (cell number × 10^5): about 4×10^4 cells seeded, untreated 9.6 ± 0.5; for % inhibiton: growth vs untreated
Method: as §1

[11] = tested on: A431 human epidermoid carcinoma cells; test: as above; type: cell-based; conditions: 10 micromoles; for Treated (cell number × 10^5): about 4×10^4 cells seeded, untreated 5.4 ± 0.4; for % inhibiton: growth vs untreated
Method: as §1

KB oral cancer cells = test: as above; type: cell-based, human; conditions: 10 micromoles; for Treated (cell number × 10^5): about 4×10^4 cells seeded, untreated 3.8 ± 0.4; for % inhibiton: growth vs untreated
Method: as §1

human cancer cells = test: Cell viability assay, summary over the panel of cancer cells; type: cell-based; conditions: 10 micromoles; day 6; cell lines not named as going to apoptosis
Method: The following cancer cells were maintained in Dulbecco's modified Eagle medium (DMEM) supplemented with 10 percent bovine calf serum. Cells were seeded for 24 hours. Then they were treated with PKC inhibitors or left untreated. The cells were then collected periodically and evaluated using trypan blue dye exclusion to assess viability using the method described by C Y Chen, et al., in J. Biol. Chem. 273:16700-16709. Cultures containing about 4×10^4 cells were treated with or without 10 micromoles of Gö6850 and the viable cells were counted at day 6. […] Cultures containing about 4×10^4 cells were treated with or without 10 micromoles of NGIC-I and the viable cells were counted at day 6. […] Cultures containing about 4×10^4 cells were treated with or without 10 micromoles of Ro31-7549 and the viable cells were counted at day 6. […] Cultures containing about 4×10^4 cells were treated with or without 10 micromoles of Ro31-8220 and the viable cells were counted at day 6. […] Cultures containing about 4×10^4 cells were treated with or without 10 micromoles of Ro31-8425 and the viable cells were counted at day 6. […] Cultures containing about 4×10^4 cells were treated with or without 10 micromoles of Ro31-0432 and the viable cells were counted at day 6.

Question: Which results are given for `Cn1cc(C2=C(c3cn(CCCSC(=N)N)c4ccccc34)C(=O)NC2=O)c2ccccc21` [Ro31-8220]?
Answer: Treated (cell number × 10^5) [1]: 0.4 × 10^5; % inhibiton [1]: 90%; cells that went to apoptosis upon treatment [2]: all; Treated (cell number × 10^5) [2]: 0 × 10^5; % inhibiton [2]: * (indicates the inhibitor causes significant cell death, and cell number is less than originally seeded cell number.); cells that went to apoptosis upon treatment [3]: all; Treated (cell number × 10^5) [3]: 0 × 10^5; % inhibiton [3]: * (indicates the inhibitor causes significant cell death, and cell number is less than originally seeded cell number.); Treated (cell number × 10^5) [4]: 0.6 × 10^5; % inhibiton [4]: 85%; cells that went to apoptosis upon treatment [5]: all; Treated (cell number × 10^5) [5]: 0 × 10^5; % inhibiton [5]: * (indicates the inhibitor causes significant cell death, and cell number is less than originally seeded cell number.); cells that went to apoptosis upon treatment [6]: significant number; Treated (cell number × 10^5) [6]: 0.2 ± 0.05 × 10^5; % inhibiton [6]: * (indicates the inhibitor causes significant cell death, and cell number is less than originally seeded cell number.); Treated (cell number × 10^5) [7]: 0.5 × 10^5; % inhibiton [7]: 94%; cells that went to apoptosis upon treatment [8]: significant number; Treated (cell number × 10^5) [8]: 6.0 × 10^5; % inhibiton [8]: * (indicates the inhibitor causes significant cell death, and cell number is less than originally seeded cell number.); Treated (cell number × 10^5) [9]: 2.7 × 10^5; % inhibiton [9]: 62%; Treated (cell number × 10^5) [10]: 0.4 × 10^5; % inhibiton [10]: 85%; Treated (cell number × 10^5) (U251 human glioma cells): 1.4 × 10^5; % inhibiton (U251 human glioma cells): 85%; Treated (cell number × 10^5) [11]: 2.1 × 10^5; % inhibiton [11]: 60%; cells that went to apoptosis upon treatment (KB oral cancer cells): all; Treated (cell number × 10^5) (KB oral cancer cells): 0 × 10^5; % inhibiton (KB oral cancer cells): * (indicates the inhibitor causes significant cell death, and cell number is less than originally seeded cell number.); inhibition of growth in contrast to untreated cells, range over the other treated cancer cells (human cancer cells): 60-94%

Question: `Cn1cc(C2=C(c3cn(CCCN)c4ccccc34)C(=O)NC2=O)c2ccccc21` [Ro31-7549, 2-[1-3(Aminopropyl)indol-3-yl]-3(1-methyl-1H-indol-3-yl)maleimide, Acetate] was tested. Which “cells that went to apoptosis upon treatment” value (shortened to “cells that went”) [1] did it give?
Answer: The value was “all”.

Question: And the “Treated (cell number × 10^5)” value [1]?
Answer: The value was 0 × 10^5.

Question: What about the “% inhibiton” value [1] of the same molecule?
Answer: Its value is “* (indicates the inhibitor causes significant cell death, and cell number is less than originally seeded cell number.)”.

Question: What about the “Treated (cell number × 10^5)” value [2] of the same molecule?
Answer: Its value is 0.6 ± 0.1 × 10^5.

Question: What about the “% inhibiton” value [2] of the same molecule?
Answer: The value was 80%.

Question: And the “Treated (cell number × 10^5)” value [3]?
Answer: Its value is 1.2 × 10^5.

Question: What about the “% inhibiton” value [3] of the same molecule?
Answer: The value was 43%.

Question: What about the “Treated (cell number × 10^5)” value [4] of the same molecule?
Answer: The value was 1.7 × 10^5.

Question: What about the “% inhibiton” value [4] of the same molecule?
Answer: Its value is 63%.

Question: What about the “Treated (cell number × 10^5)” value [5] of the same molecule?
Answer: Its value is 1.7 × 10^5.

Question: And the “% inhibiton” value [5]?
Answer: Its value is 30%.

Question: What about the “cells that went” value [6] of the same molecule?
Answer: The value was “significant number”.

Question: What about the “Treated (cell number × 10^5)” value [6] of the same molecule?
Answer: Its value is 0.2 ± 0.05 × 10^5.

Question: And the “% inhibiton” value [6]?
Answer: The value was “* (indicates the inhibitor causes significant cell death, and cell number is less than originally seeded cell number.)”.

Question: And the “Treated (cell number × 10^5)” value [7]?
Answer: Its value is 0.7 × 10^5.

Question: What about the “% inhibiton” value [7] of the same molecule?
Answer: Its value is 92%.

Question: What about the “cells that went” value [8] of the same molecule?
Answer: The value was “significant number”.

Question: And the “Treated (cell number × 10^5)” value [8]?
Answer: Its value is 6 × 10^5.

Question: And the “% inhibiton” value [8]?
Answer: Its value is “* (indicates the inhibitor causes significant cell death, and cell number is less than originally seeded cell number.)”.

Question: And the “Treated (cell number × 10^5)” value [9]?
Answer: Its value is 2.7 × 10^5.

Question: And the “% inhibiton” value [9]?
Answer: Its value is 62%.

Question: And the “Treated (cell number × 10^5)” value [10]?
Answer: The value was 0.5 × 10^5.

Question: What about the “% inhibiton” value [10] of the same molecule?
Answer: Its value is 81%.

Question: And the “Treated (cell number × 10^5)” value (U251 human glioma cells)?
Answer: The value was 1.9 × 10^5.

Question: And the “% inhibiton” value (U251 human glioma cells)?
Answer: Its value is 80%.

Question: What about the “Treated (cell number × 10^5)” value [11] of the same molecule?
Answer: The value was 2.8 × 10^5.

Question: What about the “% inhibiton” value [11] of the same molecule?
Answer: The value was 48%.

Question: And the “cells that went” value (KB oral cancer cells)?
Answer: The value was “all”.

Question: And the “Treated (cell number × 10^5)” value (KB oral cancer cells)?
Answer: Its value is 0 × 10^5.

Question: And the “% inhibiton” value (KB oral cancer cells)?
Answer: Its value is “* (indicates the inhibitor causes significant cell death, and cell number is less than originally seeded cell number.)”.

Question: What about the “inhibition of growth in contrast to untreated cells, range over the other treated cancer cells” value (human cancer cells) of the same molecule?
Answer: Its value is 43-92%.

From patent US20080009511A1, “Cancer treatment with compounds inhibiting PKC alpha” (priority 2004, published 2008)
